Assay results as given in ChEMBL document CHEMBL4483862, “Open-source discovery of chemical leads for next-generation chemoprotective antimalarials” (2018).

System: Plasmodium berghei
Experiment: Luciferase/luciferin-expressing antifolate-resistant parasites were used to infect a culture of HepG2 cells that were pre-incubated with compounds. Infected hepatocytes emit light due to the luciferase reaction. Assay results are presented as the percent inhibition of light emission compared to control. […]
Assay type: functional
Settings: sporozoite; for IC50: read-out: LUCIFERASE INFECTION ASSAY - IC50; for IC90: read-out: LUCIFERASE INFECTION ASSAY - IC90

Row | Compound | IC50 | IC90
1 | Cn1cc(S(=O)(=O)Nc2cccc(CN3C(=O)CNC3=O)c2)cc1C(N)=O | > 10 µM | > 10 µM
2 | CC(C(=O)NC(C)(C)C)N1CCN(CC(=O)Nc2ccc(F)cc2)CC1 (centres undefined) | > 10 µM | > 10 µM
3 | Cc1nnc(N(C)CCCc2n[nH]c(N)c2C#N)c2ccccc12 | > 10 µM | > 10 µM
4 | N#Cc1ccccc1S(=O)(=O)Nc1cccc(-n2cccn2)c1 | > 10 µM | > 10 µM
5 | Cc1cc(C(=O)Nc2nc3ccccc3s2)c(C)n1C(C)C | 0.121 µM | 0.946 µM
6 | CCNC(=O)CNC(=O)c1ccc(C(C)(C)C)cc1 | > 10 µM | > 10 µM
7 | Cc1nc(Cc2nc(-c3ccc(S(C)(=O)=O)cc3)cs2)cs1 | > 10 µM | > 10 µM
8 | Cc1ccc(-c2nc(C)sc2CC(=O)NC2CCN(C3CC3)C2)cc1 (centres undefined) | > 10 µM | > 10 µM
9 | CNS(=O)(=O)Cc1ccccc1CNCc1ccc(OC(F)F)cc1 | > 10 µM | > 10 µM
10 | O=S(=O)(C1=Cc2ccccc2CC1)N1CCOC2CCCCC21 (centres undefined) | > 10 µM | > 10 µM
11 | Cc1cc(N2CCOCC2)ccc1NC(=O)CC1C=CCC1 (centres undefined) | > 10 µM | > 10 µM
12 | CNS(=O)(=O)Cc1ccccc1CNCc1cccc(Oc2ccccc2)c1 | > 10 µM | > 10 µM
13 | Cc1cc(Cl)ccc1NC(=O)c1cn(C)nc1C(F)(F)F | > 10 µM | > 10 µM
14 | COC(=O)c1cc2ccccc2cc1OC(=O)COc1ccc(C#N)cc1 | > 10 µM | > 10 µM
15 | CC(N)C(=O)NCC(F)(F)F (centres undefined) | > 10 µM | > 10 µM
16 | N#Cc1ccccc1S(=O)(=O)Oc1ccccc1C(F)(F)F | > 10 µM | > 10 µM
17 | CC(=O)Nc1nc(C(=O)Nc2nc3ccccc3n2C2CCCCC2)cs1 | > 10 µM | > 10 µM
18 | O=C(NCCCC(=O)N1CCC(c2ccc(O)cc2)CC1)c1ccsc1 | > 10 µM | > 10 µM
19 | O=C(O)Cc1csc(-c2cc(Br)cs2)n1 | > 10 µM | > 10 µM
20 | Cc1cc(C)n2nc(C(=O)OCC(=O)N(C)Cc3ccsc3)nc2n1 | > 10 µM | > 10 µM
21 | Cc1nnc(-c2cccc(NC(=O)c3ccc4c(c3)CCO4)c2)[nH]1 | > 10 µM | > 10 µM
22 | CCOC(=O)C1=C(Cn2ccnc2)NC(=O)NC1CC (centres undefined) | > 10 µM | > 10 µM
23 | Clc1ccc2c(NCCCNc3ccccn3)ncnc2c1 | > 10 µM | > 10 µM
24 | Cc1nnc(SC2CCCCC2=O)n1C1CCCCC1 (centres undefined) | > 10 µM | > 10 µM

Row | Compound | IC50 | IC90
25 | COc1ccc(-c2ccc(CCC(=O)Nc3sccc3C#N)o2)cc1 | 7.82 µM | > 10 µM
26 | CC(=O)c1c(C)cc(C)c(CN2C(=O)CN(c3ccccc3)C2=O)c1C | > 10 µM | > 10 µM
27 | Cn1cnnc1-c1cccc(NC(=O)c2ccc(=O)n(Cc3ccccc3)n2)c1 | > 10 µM | > 10 µM
28 | COC(=O)c1cccc2c1CCCN2C(=O)CCN1C(=O)C2CCCCC2C1=O (centres undefined) | > 10 µM | > 10 µM
29 | CC(C)c1noc(COC(=O)c2ccc(-c3ccc(O)cc3)cc2)n1 | > 10 µM | > 10 µM
30 | CC(Cc1ccco1)NCc1ccc(-n2ccnc2)cc1 (centres undefined) | > 10 µM | > 10 µM
31 | CCN(CC)S(=O)(=O)c1ccc(=O)n(Cc2nc(N)nc(N(C)C)n2)c1 | > 10 µM | > 10 µM
32 | COc1cc(CNC(=O)c2scnc2C)ccc1OC1CCCC1 | 2.89 µM | > 10 µM
33 | NC(=O)N1CCCC(C(=O)N2CCCC(c3nc4ccccc4s3)C2)C1 (centres undefined) | > 10 µM | > 10 µM
34 | CNS(=O)(=O)c1ccc(CCC(=O)OC2CCCCC2=O)cc1 (centres undefined) | > 10 µM | > 10 µM
35 | CC(=O)c1cc2c(cc1NC(=O)c1ccc(Cn3cccn3)cc1)OCO2 | > 10 µM | > 10 µM
36 | CC(NC(=O)Nc1ccc(C#N)c(Cl)c1)c1cccs1 (centres undefined) | > 10 µM | > 10 µM
37 | CCc1cc(Cl)n2nc(C(=O)OC)nc2n1 | > 10 µM | > 10 µM
38 | O=C1/C(=C/c2ccc(-n3cncn3)c(F)c2)CSc2ccccc21 | > 10 µM | > 10 µM
39 | O=C1COc2cc(C(=O)Oc3ccc4ccccc4c3Br)ccc2N1 | > 10 µM | > 10 µM
40 | O=C(NCc1ccccn1)c1ccc2nc3n(c2c1)CCC3 | > 10 µM | > 10 µM
41 | CCOc1cc(CN(C)c2cncc(-n3cccn3)n2)ccc1OC(F)F | > 10 µM | > 10 µM
42 | Cc1[nH]c(C(=O)N2CCN(CC3CCCCC3)CC2)c(C)c1C(=O)OC(C)C | > 10 µM | > 10 µM
43 | Cc1cnc2c(S(=O)(=O)NCc3csc(-c4ccccc4)n3)cccc2c1 | > 10 µM | > 10 µM
44 | CCn1c(=O)n(Cc2cc(Cl)c3c(c2)OCO3)c2ccccc21 | > 10 µM | > 10 µM
45 | CN(CCCN1C(=O)c2ccccc2C1=O)CC(=O)N(C)C | > 10 µM | > 10 µM
46 | CCc1nnc(NC(=O)c2csc(Cc3ccccc3)n2)s1 | 8.84 µM | > 10 µM
47 | CCNC(=O)c1cccc(NC(=O)CCC(=O)c2cc(C)ccc2C)c1 | > 10 µM | > 10 µM
